# In US20220128542A1, “TREATMENT EFFICIENCY EVALUATION” (TX MEDIC AB, priority 2019, published 2022):
# Tested on: brain of rats subjected to severe traumatic brain injury (sTBI)
# Experiment: Ingenuity pathway analysis of differentially regulated genes after sTBI (canonical pathways, diseases and molecular functions; Example 4)
# Design: species or system rat
# Procedure: Pathway analysis of the differentially regulated genes was carried out using the Ingenuity pathway analysis package. The analysis was performed with special reference to pathways and molecular processes and diseases associated with neurodegenerative disease, including dementia, Alzheimer's disease, ALS, TBI and stroke, and with scarring and fibrosis, including glaucoma and normal pressure hydrocephalus (NPH) after subarachnoid haemorrhage.
# [1] = TBI + 1 mg/kg LMW-DS, 2 days after TBI
# [2] = TBI + 1 mg/kg LMW-DS, 7 days after TBI, relative to control
# [3] = TBI + 1 mg/kg LMW-DS, 7 days after TBI
# [4] = TBI + 5 mg/kg LMW-DS, 2 days after TBI
substance,measurement,setting,value
sodium salt of dextran sulfate [LMW-DS],Effect on diseases or functions annotation: Apoptosis of muscle cells,[1],Activated
same,Effect on diseases or functions annotation: Behavior,[1],Activated
same,Effect on diseases or functions annotation: Binding of tumor cell lines,[1],Activated
same,Effect on diseases or functions annotation: Carcinoma,[1],Inhibited
same,Effect on diseases or functions annotation: Cell death,[1],Inhibited
same,Effect on diseases or functions annotation: Cell death of blood cells,[1],Activated
same,Effect on diseases or functions annotation: Cell death of immune cells,[1],Activated
same,Effect on diseases or functions annotation: Cell movement,[1],Activated
same,Effect on diseases or functions annotation: Cell movement of muscle cells,[1],Inhibited
same,Effect on diseases or functions annotation: Cell movement of vascular smooth muscle cells,[1],Inhibited
same,Effect on diseases or functions annotation: Cell proliferation of T lymphocytes,[1],Inhibited
same,Effect on diseases or functions annotation: Cellular homeostasis,[1],Activated
same,Effect on diseases or functions annotation: Development of connective tissue cells,[1],Inhibited
same,Effect on diseases or functions annotation: Differentiation of bone cells,[1],Inhibited
same,Effect on diseases or functions annotation: Differentiation of connective tissue cells,[1],Activated
same,Effect on diseases or functions annotation: Differentiation of hematopoietic progenitor cells,[1],Activated
same,Effect on diseases or functions annotation: Differentiation of osteoclasts,[1],Inhibited
same,Effect on diseases or functions annotation: Digestive organ tumor,[1],Inhibited
same,Effect on diseases or functions annotation: Experimentally-induced arthritis,[1],Inhibited
same,Effect on diseases or functions annotation: Extracranial solid tumor,[1],Activated
same,Effect on diseases or functions annotation: Genital tumor,[1],Activated
same,Effect on diseases or functions annotation: Incidence of tumor,[1],Inhibited
same,Effect on diseases or functions annotation: Inflammation of absolute anatomical region,[1],Inhibited
same,Effect on diseases or functions annotation: Inflammation of body cavity,[1],Inhibited
same,Effect on diseases or functions annotation: Inflammation of joint,[1],Inhibited
same,Effect on diseases or functions annotation: Inflammation of organ,[1],Inhibited
same,Effect on diseases or functions annotation: Inflammatory response,[1],Activated
same,Effect on diseases or functions annotation: Interaction of mononuclear leukocytes,[1],Activated
same,Effect on diseases or functions annotation: Leukocyte migration,[1],Activated
same,Effect on diseases or functions annotation: Leukopoiesis,[1],Activated
same,Effect on diseases or functions annotation: Lymphopoiesis,[1],Activated
same,Effect on diseases or functions annotation: Malignant solid tumor,[1],Inhibited
same,Effect on diseases or functions annotation: Migration of cells,[1],Activated
same,Effect on diseases or functions annotation: Necrosis,[1],Inhibited
same,Effect on diseases or functions annotation: Non-hematologic malignant neoplasm,[1],Inhibited
same,Effect on diseases or functions annotation: Pelvic tumor,[1],Inhibited
same,Effect on diseases or functions annotation: Proliferation of blood cells,[1],Inhibited
same,Effect on diseases or functions annotation: Proliferation of lymphatic system cells,[1],Inhibited
same,Effect on diseases or functions annotation: Proliferation of lymphocytes,[1],Inhibited
same,Effect on diseases or functions annotation: Quantity of blood cells,[1],Inhibited
same,Effect on diseases or functions annotation: Quantity of bone,[1],Inhibited
same,Effect on diseases or functions annotation: Quantity of cells,[1],Inhibited
same,Effect on diseases or functions annotation: Quantity of connective tissue cells,[1],Activated
same,Effect on diseases or functions annotation: Quantity of leukocytes,[1],Inhibited
same,Effect on diseases or functions annotation: Quantity of lymphatic system cells,[1],Inhibited
same,Effect on diseases or functions annotation: Quantity of phagocytes,[1],Inhibited
same,Effect on diseases or functions annotation: Rheumatic Disease,[1],Inhibited
same,Effect on diseases or functions annotation: Solid tumor,[1],Inhibited
same,Effect on diseases or functions annotation: Survival of organism,[1],Inhibited
same,Effect on diseases or functions annotation: Synthesis of hormone,[1],Activated
same,Effect on diseases or functions annotation: Thrombus,[1],Activated
same,Effect on diseases or functions annotation: Transport of molecule,[1],Activated
same,"z score, Ingenuity canonical pathway: Adrenomedullin signaling pathway",[2],−1
same,"z score, Ingenuity canonical pathway: ERK5 Signaling",[2],−2
same,"z score, Ingenuity canonical pathway: Endothelin-1 Signaling",[2],1.342
same,"z score, Ingenuity canonical pathway: G Beta Gamma Signaling",[2],1
same,"z score, Ingenuity canonical pathway: NF-κB Signaling",[2],−0.447
same,"z score, Ingenuity canonical pathway: Opioid Signaling Pathway",[2],−0.447
same,"z score, Ingenuity canonical pathway: Role of NFAT in Regulation of the Immune Response",[2],0.816
same,"z score, Ingenuity canonical pathway: Synaptic Long Term Depression",[2],1.342
same,Diseases or functions annotation: Abdominal cancer,[3],Inhibited
same,Diseases or functions annotation: Abdominal carcinoma,[3],Inhibited
same,Diseases or functions annotation: Cell movement,[3],Inhibited
same,Diseases or functions annotation: Cell viability,[3],Inhibited
same,Diseases or functions annotation: Concentration of hormone,[3],Inhibited
same,Diseases or functions annotation: Development of connective tissue cells,[3],Inhibited
same,Diseases or functions annotation: Development of malignant tumor,[3],Inhibited
same,Diseases or functions annotation: Developmental process of synapse,[3],Inhibited
same,Diseases or functions annotation: Differentiation of bone cells,[3],Inhibited
same,Diseases or functions annotation: Differentiation of connective tissue cells,[3],Inhibited
same,Diseases or functions annotation: Digestive organ tumor,[3],Inhibited
same,Diseases or functions annotation: Digestive system cancer,[3],Inhibited
same,Diseases or functions annotation: Epithelial neoplasm,[3],Inhibited
same,Diseases or functions annotation: Formation of plasma membrane,[3],Inhibited
same,Diseases or functions annotation: Frequency of tumor,[3],Inhibited
same,Diseases or functions annotation: Gastrointestinal tumor,[3],Inhibited
same,Diseases or functions annotation: Hematologic cancer,[3],Inhibited
same,Diseases or functions annotation: Hematopoietic neoplasm,[3],Inhibited
same,Diseases or functions annotation: Incidence of tumor,[3],Inhibited
same,Diseases or functions annotation: Large intestine neoplasm,[3],Inhibited
same,Diseases or functions annotation: Liver tumor,[3],Inhibited
same,Diseases or functions annotation: Malignant genitourinary solid tumor,[3],Inhibited
same,Diseases or functions annotation: Metabolism of hormone,[3],Inhibited
same,Diseases or functions annotation: Pelvic tumor,[3],Inhibited
same,Diseases or functions annotation: Quantity of Ca^2+,[3],Inhibited
same,Diseases or functions annotation: Quantity of carbohydrate,[3],Activated
same,Diseases or functions annotation: Quantity of metal,[3],Activated
same,Diseases or functions annotation: Synthesis of lipid,[3],Activated
same,Diseases or functions annotation: Tumorigenesis of epithelial neoplasm,[3],Inhibited
same,Diseases or functions annotation: Tumorigenesis of tissue,[3],Inhibited
same,Diseases or functions annotation: Vaso-occlusion,[3],Activated
same,Diseases or functions annotation: Weight gain,[3],Activated
same,Ingenuity canonical pathway: Adrenomedullin signaling pathway,[3],Inhibited
same,Ingenuity canonical pathway: ERK5 Signaling,[3],Inhibited
same,Ingenuity canonical pathway: Endothelin-1 Signaling,[3],Activated
same,Ingenuity canonical pathway: G Beta Gamma Signaling,[3],Activated
same,Ingenuity canonical pathway: NF-κB Signaling,[3],Inhibited
same,Ingenuity canonical pathway: Opioid Signaling Pathway,[3],Inhibited
same,Ingenuity canonical pathway: Role of NFAT in Regulation of the Immune Response,[3],Activated
same,Ingenuity canonical pathway: Synaptic Long Term Depression,[3],Activated
same,Effect on diseases or functions annotation: Abdominal cancer,[4],Inhibited
same,Effect on diseases or functions annotation: Abdominal carcinoma,[4],Inhibited
same,Effect on diseases or functions annotation: Abdominal neoplasm,[4],Inhibited
same,Effect on diseases or functions annotation: Apoptosis,[4],Activated
same,Effect on diseases or functions annotation: Behavior,[4],Inhibited
same,Effect on diseases or functions annotation: Carcinoma,[4],Inhibited
same,Effect on diseases or functions annotation: Cell death,[4],Activated
same,Effect on diseases or functions annotation: Cell death of antigen presenting cells,[4],Inhibited
same,Effect on diseases or functions annotation: Cell death of immune cells,[4],Inhibited
same,Effect on diseases or functions annotation: Cell death of tumor cell lines,[4],Inhibited
same,Effect on diseases or functions annotation: Cell movement,[4],Inhibited
same,Effect on diseases or functions annotation: Cell movement of tumor cell lines,[4],Inhibited
same,Effect on diseases or functions annotation: Cell proliferation of leukocyte cell lines,[4],Inhibited
same,Effect on diseases or functions annotation: Cellular homeostasis,[4],Inhibited
same,Effect on diseases or functions annotation: Chemotaxis,[4],Inhibited
same,Effect on diseases or functions annotation: Concentration of prostaglandin,[4],Inhibited
same,Effect on diseases or functions annotation: Development of vasculature,[4],Inhibited
same,Effect on diseases or functions annotation: Digestive organ tumor,[4],Inhibited
same,Effect on diseases or functions annotation: Digestive system cancer,[4],Inhibited
same,Effect on diseases or functions annotation: Edema,[4],Activated
same,Effect on diseases or functions annotation: Epithelial neoplasm,[4],Inhibited
same,Effect on diseases or functions annotation: Extracranial solid tumor,[4],Inhibited
same,Effect on diseases or functions annotation: Feeding,[4],Inhibited
same,Effect on diseases or functions annotation: Growth of tumor,[4],Inhibited
same,Effect on diseases or functions annotation: Hematologic cancer,[4],Inhibited
same,Effect on diseases or functions annotation: Incidence of tumor,[4],Inhibited
same,Effect on diseases or functions annotation: Leukocyte migration,[4],Inhibited
same,Effect on diseases or functions annotation: Leukopoiesis,[4],Inhibited
same,Effect on diseases or functions annotation: Locomotion,[4],Inhibited
same,Effect on diseases or functions annotation: Lymphocyte homeostasis,[4],Inhibited
same,Effect on diseases or functions annotation: Lymphocytic cancer,[4],Inhibited
same,Effect on diseases or functions annotation: Lymphocytic neoplasm,[4],Inhibited
same,Effect on diseases or functions annotation: Lymphopoiesis,[4],Inhibited
same,Effect on diseases or functions annotation: Lymphoproliferative disorder,[4],Inhibited
same,Effect on diseases or functions annotation: Malignant solid tumor,[4],Inhibited
same,Effect on diseases or functions annotation: Metabolism of hormone,[4],Inhibited
same,Effect on diseases or functions annotation: Migration of cells,[4],Inhibited
same,Effect on diseases or functions annotation: Necrosis,[4],Inhibited
same,Effect on diseases or functions annotation: Neoplasia of leukocytes,[4],Inhibited
same,Effect on diseases or functions annotation: Non-melanoma solid tumor,[4],Inhibited
same,Effect on diseases or functions annotation: Proliferation of hematopoietic progenitor cells,[4],Inhibited
same,Effect on diseases or functions annotation: Quantity of cells,[4],Inhibited
same,Effect on diseases or functions annotation: Quantity of epithelial tissue,[4],Inhibited
same,Effect on diseases or functions annotation: Quantity of neuroglia,[4],Inhibited
